Data reported in US20260070945A1, “MACROCYCLIC IMMUNOMODULATORS” (Bristol-Myers Squibb Company, priority 2022, published 2026).
Where a SMILES comes first, the peptide text is derived from it. Bridges are numbered along the chain shown (N, C = ends). [ ]: non-standard residue; d: D form. The star is where a group is joined. ξ: configuration not given here. Phe(4-COOH) = N[C@@H](Cc1ccc(C(=O)O)cc1)C(=O)O; Bip = N[C@@H](Cc1ccc(-c2ccccc2)cc1)C(=O)O; Phe(3-Me) = Cc1cccc(C[C@H](N)C(=O)O)c1; hhGln = NC(=O)CCCC[C@H](N)C(=O)O; Cha = N[C@@H](CC1CCCCC1)C(=O)O; Cit = NC(=O)NCCC[C@H](N)C(=O)O; Thr(3ξ) = CC(O)[C@H](N)C(=O)O; hSer = N[C@@H](CCO)C(=O)O; Carboxymethyl = O=C(O)C*; NMeA = CN[C@@H](C)C(=O)O; Aun = NCCCCCCCCCCC(=O)O; Dab = NCC[C@H](N)C(=O)O; AEEA = NCCOCCOCC(=O)O

Target: T1, PD-1/PD-L1 interaction (PE-labeled human PD-L1-Ig binding to Jurkat cell line over-expressing human PD-1) (Homo sapiens, UniProt Q15116)
T1 construct: expressed in transfected cells; host or cells: Jurkat
T1 sequence (Q15116 25-288): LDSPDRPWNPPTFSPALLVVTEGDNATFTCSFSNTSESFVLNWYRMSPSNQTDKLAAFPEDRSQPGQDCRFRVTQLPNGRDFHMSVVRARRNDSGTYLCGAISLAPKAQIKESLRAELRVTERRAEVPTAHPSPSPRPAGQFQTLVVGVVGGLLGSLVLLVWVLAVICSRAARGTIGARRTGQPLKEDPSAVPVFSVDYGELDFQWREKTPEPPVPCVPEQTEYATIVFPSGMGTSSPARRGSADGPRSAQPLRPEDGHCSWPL
Test: Jurkat-PD-1 Cell Binding High-Content Screening Assay (CBA)
Conditions: Jurkat-hPD-1 cells, PE-labeled PD-L1-Ig 20 nM final; read-out: Jurkat HPD1 PDL1 IC50
Summary of the method: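 In this imaging assay, cells in 10% FCS medium see compound for 2 h at 37 °C and then labeled ligand at 20 nM final for 1 h. Paraformaldehyde fixation, Hoechst 33342 staining and dPBS washes precede image capture.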

Point of comparison: `Cc1cccc(C[C@@H]2NC(=O)[C@H](CC(=O)O)NC(=O)[C@H](Cc3ccc(OCC(=O)O)cc3)NC(=O)[C@H](C(C)O)NC(=O)CSC[C@@H](C(=O)NCCOCCOCC(=O)NCCCCCCCCCCC(=O)O)NC(=O)[C@H](C(C)O)NC(=O)[C@H](C(C)C)NC(=O)[C@H](CC3CCCCC3)NC(=O)[C@H](CCN)NC(=O)[C@@H](CC(C)C)NC(=O)[C@H](C)N(C)C(=O)[C@H](Cc3ccc(OCC(=O)O)cc3)NC(=O)[C@H](Cc3ccc(-c4ccccc4)cc3)NC(=O)[C@H](CCCCC(N)=O)NC2=O)c1` (stereo partly drawn) [Example 2345] ({CH2CO}-[Thr(3ξ)]Y(Carboxymethyl)D[Phe(3-Me)][hhGln][Bip]Y(Carboxymethyl)[NMeA][dL][Dab][Cha]V[Thr(3ξ)]C[AEEA][Aun]-OH; thioether N-14), IC50 67.5 nM. Against it:
- Cc1cccc(C[C@@H]2NC(=O)[C@H](CC(=O)O)NC(=O)[C@H](Cc3ccc(OCC(=O)O)cc3)NC(=O)[C@H](C(C)O)NC(=O)CSC[C@@H](C(=O)N[C@@H](CCN)C(=O)NCCCCCCCCCCC(=O)O)NC(=O)[C@H](C(C)O)NC(=O)[C@H](C(C)C)NC(=O)[C@H](CC3CCCCC3)NC(=O)[C@H](CCN)NC(=O)[C@@H](CC(C)C)NC(=O)[C@H](C)N(C)C(=O)[C@H](CCCNC(N)=O)NC(=O)[C@H](Cc3ccc(-c4ccccc4)cc3)NC(=O)[C@H](C(C)C)NC2=O)c1 (stereo partly drawn) [Example 2336] ({CH2CO}-[Thr(3ξ)]Y(Carboxymethyl)D[Phe(3-Me)]V[Bip][Cit][NMeA][dL][Dab][Cha]V[Thr(3ξ)]C[Dab][Aun]-OH; thioether N-14) — 10-fold lower, 6.7 nM
- Cc1cccc(C[C@@H]2NC(=O)[C@H](CC(=O)O)NC(=O)[C@H](Cc3ccc(OCC(=O)O)cc3)NC(=O)[C@H](C(C)O)NC(=O)CSC[C@@H](C(=O)N[C@H](CC(N)=O)C(=O)NCCCCCCCCCCC(=O)O)NC(=O)[C@H](C(C)O)NC(=O)[C@H](C(C)C)NC(=O)[C@H](CC3CCCCC3)NC(=O)[C@H](CCN)NC(=O)[C@@H](CC(C)C)NC(=O)[C@H](C)N(C)C(=O)[C@H](CCCNC(=N)N)NC(=O)[C@H](Cc3ccc(-c4ccccc4)cc3)NC(=O)[C@H](Cc3ccc(O)cc3)NC2=O)c1 (stereo partly drawn) [Example 2338] ({CH2CO}-[Thr(3ξ)]Y(Carboxymethyl)D[Phe(3-Me)]Y[Bip]R[NMeA][dL][Dab][Cha]V[Thr(3ξ)]C[dN][Aun]-OH; thioether N-14) — 12-fold lower, 5.5 nM
- Cc1cccc(C[C@@H]2NC(=O)[C@H](CC(=O)O)NC(=O)[C@H](Cc3ccc(OCC(=O)O)cc3)NC(=O)[C@H](C(C)O)NC(=O)CSC[C@@H](C(=O)NCCOCCOCC(=O)NCCCCCCCCCCC(=O)O)NC(=O)[C@H](C(C)O)NC(=O)[C@H](C(C)C)NC(=O)[C@H](CC3CCCCC3)NC(=O)[C@H](CCN)NC(=O)[C@@H](CC(C)C)NC(=O)[C@H](C)N(C)C(=O)[C@H](Cc3ccc(OCC(=O)O)cc3)NC(=O)[C@H](Cc3ccc(-c4ccccc4)cc3)NC(=O)[C@H](Cc3ccc(OCC(=O)O)cc3)NC2=O)c1 (stereo partly drawn) [Example 2341] ({CH2CO}-[Thr(3ξ)]Y(Carboxymethyl)D[Phe(3-Me)]Y(Carboxymethyl)[Bip]Y(Carboxymethyl)[NMeA][dL][Dab][Cha]V[Thr(3ξ)]C[AEEA][Aun]-OH; thioether N-14) — 1.6-fold lower, 41.7 nM
- Cc1cccc(C[C@@H]2NC(=O)[C@H](CC(=O)O)NC(=O)[C@H](Cc3ccc(OCC(=O)O)cc3)NC(=O)[C@H](CCCNC(=N)N)NC(=O)CSC[C@@H](C(=O)NCCOCCOCC(=O)NCCCCCCCCCCC(=O)O)NC(=O)[C@H](C(C)O)NC(=O)[C@H](C(C)C)NC(=O)[C@H](CC3CCCCC3)NC(=O)[C@H](CCN)NC(=O)[C@@H](CC(C)C)NC(=O)[C@H](C)N(C)C(=O)[C@H](Cc3ccc(OCC(=O)O)cc3)NC(=O)[C@H](Cc3ccc(-c4ccccc4)cc3)NC(=O)[C@H](Cc3ccc(OCC(=O)O)cc3)NC2=O)c1 (stereo partly drawn) [Example 2342] ({CH2CO}-RY(Carboxymethyl)D[Phe(3-Me)]Y(Carboxymethyl)[Bip]Y(Carboxymethyl)[NMeA][dL][Dab][Cha]V[Thr(3ξ)]C[AEEA][Aun]-OH; thioether N-14) — within 1.5-fold, 74.8 nM
- Cc1cccc(C[C@@H]2NC(=O)[C@H](CC(=O)O)NC(=O)[C@H](Cc3ccc(OCC(=O)O)cc3)NC(=O)[C@H](C(C)O)NC(=O)CSC[C@@H](C(=O)NCCOCCOCC(=O)NCCCCCCCCCCC(=O)O)NC(=O)[C@H](C(C)O)NC(=O)[C@H](C(C)C)NC(=O)[C@H](CC3CCCCC3)NC(=O)[C@H](CCN)NC(=O)[C@@H](CC(C)C)NC(=O)[C@H](C)N(C)C(=O)[C@H](Cc3ccc(OCC(=O)O)cc3)NC(=O)[C@H](Cc3ccc(-c4ccccc4)cc3)NC(=O)[C@H](Cc3ccc(C(=O)O)cc3)NC2=O)c1 (stereo partly drawn) [Example 2343] ({CH2CO}-[Thr(3ξ)]Y(Carboxymethyl)D[Phe(3-Me)][Phe(4-COOH)][Bip]Y(Carboxymethyl)[NMeA][dL][Dab][Cha]V[Thr(3ξ)]C[AEEA][Aun]-OH; thioether N-14) — within 1.5-fold, 51.7 nM
- Cc1cccc(C[C@@H]2NC(=O)[C@H](CC(=O)O)NC(=O)[C@H](Cc3ccc(OCC(=O)O)cc3)NC(=O)[C@H](C(C)O)NC(=O)CSC[C@@H](C(=O)NCCOCCOCC(=O)NCCCCCCCCCCC(=O)O)NC(=O)[C@H](C(C)O)NC(=O)[C@H](C(C)C)NC(=O)[C@H](CC3CCCCC3)NC(=O)[C@H](CCN)NC(=O)[C@@H](CC(C)C)NC(=O)[C@H](C)N(C)C(=O)[C@H](Cc3ccc(OCC(=O)O)cc3)NC(=O)[C@H](Cc3ccc(-c4ccccc4)cc3)NC(=O)[C@H](C(C)C)NC2=O)c1 (stereo partly drawn) [Example 2346] ({CH2CO}-[Thr(3ξ)]Y(Carboxymethyl)D[Phe(3-Me)]V[Bip]Y(Carboxymethyl)[NMeA][dL][Dab][Cha]V[Thr(3ξ)]C[AEEA][Aun]-OH; thioether N-14) — 2.9-fold lower, 23.1 nM
- Cc1cccc(C[C@@H]2NC(=O)[C@H](CC(=O)O)NC(=O)[C@H](Cc3ccc(OCC(=O)O)cc3)NC(=O)[C@H](C(C)O)NC(=O)CSC[C@@H](C(=O)N[C@@H](CCN)C(=O)NCCCCCCCCCCC(=O)O)NC(=O)[C@H](C(C)O)NC(=O)[C@H](C(C)C)NC(=O)[C@H](CC3CCCCC3)NC(=O)[C@H](CCN)NC(=O)[C@@H](CC(C)C)NC(=O)[C@H](C)N(C)C(=O)[C@H](Cc3ccc(OCC(=O)O)cc3)NC(=O)[C@H](Cc3ccc(-c4ccccc4)cc3)NC(=O)[C@H](Cc3ccc(C(=O)O)cc3)NC2=O)c1 (stereo partly drawn) [Example 2347] ({CH2CO}-[Thr(3ξ)]Y(Carboxymethyl)D[Phe(3-Me)][Phe(4-COOH)][Bip]Y(Carboxymethyl)[NMeA][dL][Dab][Cha]V[Thr(3ξ)]C[Dab][Aun]-OH; thioether N-14) — 7.3-fold lower, 9.3 nM
- Cc1cccc(C[C@@H]2NC(=O)[C@H](CC(=O)O)NC(=O)[C@H](Cc3ccc(OCC(=O)O)cc3)NC(=O)[C@H](C(C)O)NC(=O)CSC[C@@H](C(=O)N[C@@H](CCN)C(=O)NCCCCCCCCCCC(=O)O)NC(=O)[C@H](CCO)NC(=O)[C@H](C(C)C)NC(=O)[C@H](CC3CCCCC3)NC(=O)[C@H](CCN)NC(=O)[C@@H](CC(C)C)NC(=O)[C@H](C)N(C)C(=O)[C@H](Cc3ccc(OCC(=O)O)cc3)NC(=O)[C@H](Cc3ccc(-c4ccccc4)cc3)NC(=O)[C@H](CCCNC(N)=O)NC2=O)c1 (stereo partly drawn) [Example 2348] ({CH2CO}-[Thr(3ξ)]Y(Carboxymethyl)D[Phe(3-Me)][Cit][Bip]Y(Carboxymethyl)[NMeA][dL][Dab][Cha]V[hSer]C[Dab][Aun]-OH; thioether N-14) — 2.2-fold lower, 30.1 nM
- Cc1cccc(C[C@@H]2NC(=O)[C@H](CC(=O)O)NC(=O)[C@H](Cc3ccc(OCC(=O)O)cc3)NC(=O)[C@H](CCCNC(=N)N)NC(=O)CSC[C@@H](C(=O)N[C@@H](CCN)C(=O)NCCCCCCCCCCC(=O)O)NC(=O)[C@H](C(C)O)NC(=O)[C@H](C(C)C)NC(=O)[C@H](CC3CCCCC3)NC(=O)[C@H](CCN)NC(=O)[C@@H](CC(C)C)NC(=O)[C@H](C)N(C)C(=O)[C@H](Cc3ccc(OCC(=O)O)cc3)NC(=O)[C@H](Cc3ccc(-c4ccccc4)cc3)NC(=O)[C@H](CCCNC(N)=O)NC2=O)c1 (stereo partly drawn) [Example 2349] ({CH2CO}-RY(Carboxymethyl)D[Phe(3-Me)][Cit][Bip]Y(Carboxymethyl)[NMeA][dL][Dab][Cha]V[Thr(3ξ)]C[Dab][Aun]-OH; thioether N-14) — 2.1-fold lower, 32.5 nM
- Cc1cccc(C[C@@H]2NC(=O)[C@H](CC(=O)O)NC(=O)[C@H](Cc3ccc(OCC(=O)O)cc3)NC(=O)[C@H](CCCNC(=N)N)NC(=O)CSC[C@@H](C(=O)N[C@@H](CCN)C(=O)NCCCCCCCCCCC(=O)O)NC(=O)[C@H](CCO)NC(=O)[C@H](C(C)C)NC(=O)[C@H](CC3CCCCC3)NC(=O)[C@H](CCN)NC(=O)[C@@H](CC(C)C)NC(=O)[C@H](C)N(C)C(=O)[C@H](Cc3ccc(OCC(=O)O)cc3)NC(=O)[C@H](Cc3ccc(-c4ccccc4)cc3)NC(=O)[C@H](Cc3ccc(C(=O)O)cc3)NC2=O)c1 [Example 2350] ({CH2CO}-RY(Carboxymethyl)D[Phe(3-Me)][Phe(4-COOH)][Bip]Y(Carboxymethyl)[NMeA][dL][Dab][Cha]V[hSer]C[Dab][Aun]-OH; thioether N-14) — 12-fold lower, 5.6 nM
- Cc1cccc(C[C@@H]2NC(=O)[C@H](CC(=O)O)NC(=O)[C@H](Cc3ccc(OCC(=O)O)cc3)NC(=O)[C@H](C(C)O)NC(=O)CSC[C@@H](C(=O)N[C@@H](CCN)C(=O)NCCCCCCCCCCC(=O)O)NC(=O)[C@H](CCO)NC(=O)[C@H](C(C)C)NC(=O)[C@H](CC3CCCCC3)NC(=O)[C@H](CCN)NC(=O)[C@@H](CC(C)C)NC(=O)[C@H](C)N(C)C(=O)[C@H](Cc3ccc(OCC(=O)O)cc3)NC(=O)[C@H](Cc3ccc(-c4ccccc4)cc3)NC(=O)[C@H](Cc3ccc(C(=O)O)cc3)NC2=O)c1 (stereo partly drawn) [Example 2352] ({CH2CO}-[Thr(3ξ)]Y(Carboxymethyl)D[Phe(3-Me)][Phe(4-COOH)][Bip]Y(Carboxymethyl)[NMeA][dL][Dab][Cha]V[hSer]C[Dab][Aun]-OH; thioether N-14) — 4.7-fold lower, 14.5 nM
